pEC50, pIC50: −log10 of the molar value.
Experiments:
[1] = molecular target: T1, Abeta:Zn (25:50 μM) Synthetic Aggregations (Homo sapiens, UniProt P05067); test: Disaggregation of Abeta:Zn synthetic aggregates (ThT fluorescence); format: biochemical; conditions: for Disaggregation % Aggregate reduction at 5 μM: 5 μM test compound; for pEC50: Abeta:Zn 25:50 μM aggregates
T1 construct: PB Compound Mediated Dissolution of Aggregated Abeta 1-42; purchased Keck Laboratory, Yale University School of Medicine
Protocol: PB Compound Mediated Dissolution of Aggregated Abeta 1-42
Abeta1-42, is available from the Keck Laboratory, Yale University School of Medicine. PBS (pH 6.6): Sigma Cat# D-8662. Zn(ZnCl2): BDH Cat#100884E. (Dissolved in water in 1 mM concentration) DMSO: Ajax Cat#2225. Thioflavin T: Sigma Cat# T-3516. (Dissolved in water in 1 mM concentration)
By way of example of an amyloid composition, Abeta is dissolved in distilled water and peptide concentration is assessed by measured absorption at 214 nm in UV spectrometer. An aggregation reactive mixture (per one concentration of one testing compound) is set us as follows: Abeta: 25 μM, ZnCl2 50 μM, ThT 50 μM, PBS to make up to 500 μl. The tube is wrapped with foil and incubated at 37 degrees by rotation for 24 hours. A serial dilution of each test compound is made up in DMSO, for example: 100 μM, 500 μM, 1000 μM, 2500 μM and 5000 μM. The final concentrations are 1, 5, 10, 25 and 50 μM, 5 μl of each of these compounds is placed in a centrifuge tube and 5 μl of DMSO is added to both negative and positive control tubes. 495 μl of aggregates (after 24 hours incubation) is added to the centrifuge tube. The negative control is PBS plus ZnCl2 and ThT and DMSO. The positive control is aggregates plus DMSO. The tubes are incubated at 37 degrees for further 2 hours with rotation. Samples are measured for ThT fluorescence using an LS55 (Perkin Elmer) fluorimeter in a cuvette (500 μl volume). The excitation wavelength is 450 nm and the emission wavelength is 480 nm. Data are analyzed using graph pad prism program. The tested compounds included so called “PB” compounds.

[2] = system: primary cortical neuronal cultured cells; test: Test compound cytotoxicity, MTS assay, primary cortical neuronal cultures; format: cell-based, mouse; conditions: for Cytotox (% viable) Neuronal cells at 1 μM: 1 μM test compound; for Cytotox (% viable) Neuronal cells at 10 μM: 10 μM test compound
How it was run: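 Primary cortical neurons were cultured five days in Neurobasal/B27, then exposed on day six to compounds (from 2.5 mM DMSO stocks) in medium minus antioxidants, in triplicate for 4 days at 37° C. Viability was measured by MTS, 2 h at 37° C, absorbance at 560 nm.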

[3] = Mice plasma concentration after oral dose; format: in vivo; conditions: for Mice plasma concentration: 30 min to 4 h after single or repeat oral dose of 30 mg/kg
[4] = Toxicity, visual observations in mice; conditions: 30 mg/kg; duration and visual observations
[5] = system: M17 human neuroblastoma cells; test: Cytotoxicity, M17 human neuroblastoma cells; format: cell-based; conditions: for Cytotox (% viable) M17 cells at 1 μM: 1 μM test compound; for Cytotox (% viable) M17 cells at 10 μM: 10 μM test compound
Protocol: Assay 3. MTS Assay for Cell Viability
Cell viability is determined using the MTS assay. Culture medium is replaced with fresh neurobasal medium plus B27 supplements minus antioxidants. 1/10th volume MTS solution (Cell Titre 96 Aqueous One, Promega Corporation) and incubated at 37° C., 2 hrs. 200 microliter aliquots are measured with a spectrophotometer at 560 nm.

Aβ 1-42 = molecular target: T2, Aβ 1-42 (Homo sapiens, UniProt P05067); test: Fluorometric H2O2 assay (inhibition of Abeta H2O2 production); format: biochemical; conditions: concentration required to inhibit 50% of Abeta H2O2 production; read-out: H2O2 IC50
T2 construct: The reaction solutions contained Aβ 1-42 at concentrations
How it was run: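 Copper-dependent Aβ H2O2 production measured fluorometrically with deacetylated dichlorofluorescein plus HRP in PBS, pH 7.4. Incubation 60 min at 37 C, test compound included in wells. H2O2 quantified against H2O2 standards.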

T2 sequence (P05067 672-713 limits assumed): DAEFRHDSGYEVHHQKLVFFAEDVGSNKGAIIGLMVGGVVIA
T1 sequence (P05067 672-713 limits assumed): as above

Row | SMILES | Disaggregation % Aggregate reduction at 5 μM [1] | pEC50 [1] | Cytotox (% viable) Neuronal cells at 1 μM [2] | Cytotox (% viable) Neuronal cells at 10 μM [2] | Mice plasma concentration [3] | Toxicity at 30 mg/kg [4] | Cytotox (% viable) M17 cells at 1 μM [5] | Cytotox (% viable) M17 cells at 10 μM [5] | pIC50 (Aβ 1-42) | Mice plasma concentration at 120 mg/kg ([3]; 120 mg/kg)
1 | Cc1ccc(-n2cnc3c(O)c(Cl)cc(Cl)c3c2=O)nc1 [PB 1089] | 16.4% | < 4.70 | 96% | 83% | Up to 39 ng/ mL ng/mL | 10 days, none | – | – | – | –
2 | O=c1c2c(Cl)cc(Cl)c(O)c2ncn1CCc1ccccn1 [PB 1091] | 23.4% | < 4.70 | 100% | 92% | Up to 59 ng/ mL ng/mL | 10 days, none | – | – | – | –
3 | COc1ccc(-n2cnc3c(O)c(Cl)cc(Cl)c3c2=O)cn1 [PB 1093] | 16% | < 4.70 | 122% | 93% | Up to 80 ng/ mL ng/mL | 10 days, none | – | – | – | –
4 | Br.CC(C)n1cnc2c(O)c(Cl)cc(Cl)c2c1=O [PB 1108] | 46.5% | < 4.70 | 104% | 71% | Up to 383 ng/ mL ng/mL | 10 days, none | 94.3% | 74.5% | – | –
5 | CCCn1cnc2c(O)c(I)ccc2c1=O [PB 1119] | 51.5% | 5.57 | – | – | Up to 1096 ng/ mL ng/mL | 10 days, none | – | – | 6.55 | –
6 | O=c1c2ccc(I)c(O)c2ncn1Cc1ccccn1 [PB 1122] | 62.4% | 6.18 | – | – | Up to 1538 ng/ mL ng/mL | 10 days, none | 97.5% | 79.5% | 6.28 | –
7 | CCn1cnc2c(O)c(I)ccc2c1=O [PB 1123] | 25% | 6.04 | – | – | – | 10 days, none | – | – | 6.54 | –
8 | CCCCc1cnc2c(O)cccn2c1=O [PB 1144] | 15.5% | 5.04 | – | – | – | 10 days, none | 73.6% | 37% | 6.49 | –
9 | CN(C)Cc1ccc2c(Cl)cc(I)c(O)c2n1 [PB 1177] | 79% | 5.62 | – | – | – | 1 day, 3/4 deaths | 97.9% | 24.4% | 6.54 | –
10 | CCc1c(O)c(O)cc[n+]1CC.[Cl-] [PB 1270] | – | – | – | – | ≤ 493.7 ng/mL | 10 days, none | 102.8% | 108.3% | – | ≤ 4455 ng/mL
